# Measurements reported in patent US20030176477A1 (priority 2000, published 2003).
# Read-outs that look alike come from different tables or passages of the source.
# Experiments:
# Pyricularia oryzae [1] = test: whole plant or invertebrate; format: in vivo; settings: foliar, 168 h, read-out: control value
# Pyricularia oryzae [2] = test: whole plant or invertebrate; format: in vivo; settings: 168 h, read-out: control value
SMILES,pest or weed control at 500 ppm (Pyricularia oryzae [1]) [%],melting point [°C],pest or weed control at 500 ppm (Pyricularia oryzae [2]) [%]
"O=C(NCO)c1snc(Cl)c1Cl [compound 45, N-hydroxymethyl-3,4-dichloro-5-isothiazolecarboxamide]",> 80,–,–
"O=C(NCSc1ccc(Cl)cc1)c1snc(Cl)c1Cl [compound 65, N-(4-chlorophenylthiomethyl)-3,4-dichloro-5-isothiazolecarboxamide]",> 80,106 to 107,–
O=C(NCC(O)CO)c1snc(Cl)c1Cl (stereo not shown),–,68 to 72,–
O=C(NC(Sc1nnc(-c2ccccc2)s1)C(F)(F)F)c1snc(Cl)c1Cl (stereo not shown),–,124 to 127,–
N#C/C(=N\c1ccc(C(F)(F)F)cc1)NC(=O)c1snc(Cl)c1Cl,–,151 to 153,–
O=C(S)c1snc(Cl)c1Cl,–,79 to 80,–
CN(NC=C(C#N)c1ccccc1)C(=O)c1snc(Cl)c1Cl,–,130 to 139,–
COCNC(=O)c1snc(Cl)c1Cl,–,79 to 87,–
"CCCC(NC(C)=O)NC(=O)c1snc(Cl)c1Cl (stereo not shown) [compound 112, N-[1-(acetamido)butyl]-3,4-dichloro-5-isothiazolecarboxamide]",> 80,162 to 165,> 80
"O=C(NC(O)C(F)(F)F)c1snc(Cl)c1Cl (stereo not shown) [compound 48, N-(2,2,2-trifluoro-1-hydroxyethyl)-3,4-dichloro-5-isothiazolecarboxamide]",> 80,90 to 93,–
"CN(C)/C=N/C(=O)c1snc(Cl)c1Cl [compound 290, N-dimethylaminomethylidene-3,4-dichloro-5-iso thiazolecarboxamide]",–,196 to 197,> 80
"Cc1cc(C)n(COC(=O)c2snc(Cl)c2Cl)n1 [compound 98, 3,5-dimethylpyrazol-1-ylmethyl 3,4-dichloro-5-isothiazolecarboxylate]",> 80,80 to 81,–
"Cn1nnnc1SCN(CNC(=O)c1snc(Cl)c1Cl)C(=O)c1snc(Cl)c1Cl [compound 154, N-[(3,4-dichloro-5-isothiazolecarboxamido)-methyl]-N-(1-methyl-5-tetrazolethiomethyl)-3,4-dichloro-5-isothiazolecarboxamide]",–,185 to 188,> 80
"Cn1nnnc1SCNC(=O)c1snc(Cl)c1Cl [compound 76, N-(1-methyl-5-tetrazolethiomethyl)-3,4-dichloro-5-isothiazolecarboxamide]",> 80,176 to 177,> 80
N#CC(=CNNC(=O)c1snc(Cl)c1Cl)c1ccccc1,–,212 to 214,–
"O=C(NCS(=O)(=O)c1ccccc1)c1snc(Cl)c1Cl [compound 71, N-phenylsulfonylmethyl-3,4-dichloro-5-isothiazolecarboxamide]",> 80,175 to 176,–
"CCOC(NC(=O)c1snc(Cl)c1Cl)C(F)(F)F (stereo not shown) [compound 49, N-(2,2,2-trifluoro-1-ethoxyethyl)-3,4-dichloro-5-isothiazolecarboxamide]",–,99 to 101,> 80
"O=C(Nc1ccc(C(F)(F)F)cc1)OCNC(=O)c1snc(Cl)c1Cl [compound 58, N-[N-(4-trifluoromethylphenyl)-carbamoyloxymethyl]-3,4-dichloro-5-isothiazolecarboxamide]",–,117 to 119,> 80
Cc1c(-c2ccccc2)[nH]n(C(=O)c2snc(Cl)c2Cl)c1=O,–,190 to 191,–
CC1(C)OCC(CNC(=O)c2snc(Cl)c2Cl)O1 (stereo not shown),–,132 to 133,–
O=CN(CNC(=O)c1snc(Cl)c1Cl)Cc1ccccc1,> 80,102 to 103,> 80
O=C(c1snc(Cl)c1Cl)n1[nH]c(-c2ccc(Cl)cc2)cc1=O [compound 288],–,> 250,> 80
